# According to patent publication US8940798B2, “Compounds useful for treating and/or preventing disease-associated bone loss” (Centre National de al Recherche Scientifique (CNRS), priority 2011, dated 2015):
# How the values were obtained:
# Dock5-DHR2 = target: T1, Dock5-DHR2 (Mus musculus, UniProt B2RY04); test: Yeast exchange assay screening for Dock5 inhibitors; type: cell-based; conditions: screen of 2,640 compounds at 100 μM, 1% DMSO
# T1 construct: Dock5 DHR2 domain (aminoacids E1119 to L1667) was cloned into pEGFP (Clontech) or myc tagged in pRs426Met (21); expressed in transfected cells; host or cells: HEK-293T cells
# Excerpt: FIGS. 5A-5H: Inhibition of bone resorption by an inhibitor of Rac1 activation by Dock5. (FIG. 5A) Principle of the yeast exchange assay used to identify inhibitors of Dock5 exchange activity. Wild type Rac1 is fused to LexA DNA binding domain (LexA) and its effector Kinectin (Kin) to GAL4 activation domain (GAD). Expression of Dock5-DHR2 activates Rac1, which binds to kinectin, leading to the expression of his3 and then yeast […] for histidine. Inhibitors of Dock5-DHR2 revert Rac1 activation. (FIG. 5B) Growth curves of yeasts expressing Rac1 and Kinectin with (open triangles) and without (dots) Dock5-DHR2, in medium complemented (plain lines) or not (dotted lines) with histidine. (FIG. 5C) Structure of N-(3,5-dichlorophenyl)benzensulfonamide (C21). (FIG. 5D) Western blots showing total and GTPbound Rac1 (upper panels) and GFP and GFP-fused Dock5-DHR2 in extracts of 293T cells treated for 1 hour with the indicated concentrations of C21 in the presence of 1% DMSO. (FIG. 5E) Western blots showing total and GTP-bound Rac1 (upper panels) and GFP and GFP-fused TrioN in extracts of 293T cells treated as in FIG. 5D. (FIG. 5F) Number of OCs (OC) after a 24-hour incubation with the indicated concentrations of C21, expressed as a % of DMSO control (0 μM C21). […] (FIG. 5G) CTx concentration in the medium of OCs on bone in the absence (O) or presence of 25 μM C21. […]
# B16F10 melanoma cells = test: Bone metastasis model, B16F10 melanoma cells expressing luciferase in C57B1/6 mice; type: in vivo, mouse; conditions: 15 mg/d/kg intraperitoneal every day for 12 days; measured at days 7, 10 and 12
# Excerpt: The metastatic tumor cells in the bone matrix produce factors that directly or indirectly stimulate osteoclast differentiation and bone resorbing activity. In return, by resorbing it, the osteoclasts liberate growth factors embedded within the bone matrix that will stimulate the proliferation of metastatic cells. […] C21 being an efficient inhibitor of bone resorption, it was further assayed for its ability to slow down metastatic cell proliferation within the bone marrow. B16-F10 cells are derived from a C57B1/6 mouse melanoma and have a strong tropism for the bone. They are classically used as a model for bone metastases.
# 19 C57B1/6 mice received an injection of 10^5 B16F10 melanoma cells expressing luciferase in the left ventricle, 9 mice received the C21 compound (test group), 15 mg/d/kg solubilized in 100 μl of 5% EtOH and 4% solutol, every days for 12 days, as an intraperitoneal injection, and the other 10 mice (control group) received 100 μl of 5% ethanol/4% solutol vehicle solution.
# The proliferation of B16F10 cells was followed by their bioluminescence, measured at days 7, 10 and 12 after injection of the cells (FIG. 20).
# C57B1/6 mice = test: Ovariectomy-induced bone loss model in C57B1/6 mice; type: in vivo, mouse; conditions: 5 days per week for 28 days
# Excerpt: After menopause, a decrease in bone density due to an increase in bone resorption, leading to osteoporosis, is observed. The decrease in estrogen secretion causes i) an increase in the osteoclast level due to the decrease in secretion of OPG, a RANKL inhibitor, by the osteoblasts and ii) an increase in the lifetime of the osteoclasts due to a decrease in the production of FasL, a promoter of apoptosis, by these cells. The ovariectomy model in the mouse is classically used as a model for this physiological disturbance (see FIG. 15).
# Protocol experiment 1: 8 C57B1/6 mice underwent ovariectomy (OVX) and 4 mice were operated on without ablation of the ovaries (SHAM). After this operation, 4 OVX mice received the C21 compound (test group), 5 mg/d/kg, 5 days per week for 28 days, as a retro-orbital sinus injection, and the other 4 OVX mice (control group) and the SHAM group received PBS.
# Protocol experiment 2: 16 C57B1/6 mice underwent ovariectomy (OVX) and 15 mice were operated on without ablation of the ovaries (SHAM). After this operation, 8 OVX mice received the C21 compound (test group), 15 mg/d/kg solubilized in 100 μl of 5% EtOH and 4% solutol, 5 days per week for 28 days, as an intraperitoneal injection, and the other 8 OVX mice (control group) and the SHAM group received 100 μl of 5% ethanol/4% solutol vehicle solution. […]
# T1 sequence (B2RY04 1119-1667): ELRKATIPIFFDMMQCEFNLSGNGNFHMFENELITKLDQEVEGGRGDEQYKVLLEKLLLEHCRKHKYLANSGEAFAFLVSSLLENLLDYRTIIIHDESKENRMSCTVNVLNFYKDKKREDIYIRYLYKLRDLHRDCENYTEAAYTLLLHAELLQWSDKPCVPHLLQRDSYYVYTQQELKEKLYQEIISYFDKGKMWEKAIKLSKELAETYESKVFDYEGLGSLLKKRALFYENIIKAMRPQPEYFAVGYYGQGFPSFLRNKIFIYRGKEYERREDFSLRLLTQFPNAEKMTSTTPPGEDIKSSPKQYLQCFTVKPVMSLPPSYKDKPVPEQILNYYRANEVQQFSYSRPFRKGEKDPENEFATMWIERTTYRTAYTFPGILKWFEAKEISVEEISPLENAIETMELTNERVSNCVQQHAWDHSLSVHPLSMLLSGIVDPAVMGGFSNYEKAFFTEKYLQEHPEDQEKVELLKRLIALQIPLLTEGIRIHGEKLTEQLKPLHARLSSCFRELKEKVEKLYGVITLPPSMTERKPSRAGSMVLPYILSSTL
smiles,measurement,setting,value
"O=S(=O)(Nc1cc(Cl)cc(Cl)c1)c1ccccc1 [C21, N-(3,5-dichlorophenyl)benzenesulfonamide]",Inhibition of growth of Dock5 DHR2-expressing yeasts in Histidine deprived medium without affecting growth in Histidine complemented medium,Dock5-DHR2,identified
same,"Proliferation of B16F10 cells, bioluminescence in the tibia",B16F10 melanoma cells,markedly slowed down
same,"Bone mass (BV/TV, right distal femur, micro-tomography) of mice having undergone ovariectomy","C57B1/6 mice; experiment 1, 5 mg/d/kg, retro-orbital sinus injection",not reduced
same,Bone mass of OVX animals compared with SHAM animals,"C57B1/6 mice; experiment 2, 15 mg/d/kg, intraperitoneal injection",not significantly different
